Laboratory results taken from PubChem BioAssay (NCI).
Several values for one entry are separate records, joined by “and”; a condition that tells them apart may be missing. Equal values may be shown once.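 Cells were grown in 96-well plates and exposed to each compound for 48 hours at five concentrations; endpoints were interpolated linearly between bracketing concentrations, or set to the highest concentration if not reached. GI50 is the concentration that inhibits growth by half. The concentration for full growth arrest is given as TGI.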

What was measured:
Assay in all cases: inhibition of tumour cell growth, NCI panel, 48 h
MALME-3M melanoma = test system: MALME-3M melanoma
HS 578T breast = test system: HS 578T breast
MDA-MB-231 breast = test system: MDA-MB-231 breast
SW-620 colon = test system: SW-620 colon
HCT-15 colon = test system: HCT-15 colon
U251 CNS = test system: U251 CNS
DU-145 prostate = test system: DU-145 prostate
SK-MEL-2 melanoma = test system: SK-MEL-2 melanoma
K-562 leukemia = test system: K-562 leukemia
LOX IMVI melanoma = test system: LOX IMVI melanoma

SMILES	GI50 (MALME-3M melanoma)	TGI (MALME-3M melanoma)	GI50 (HS 578T breast) [µM]	TGI (HS 578T breast)	GI50 (MDA-MB-231 breast)	TGI (MDA-MB-231 breast)	GI50 (SW-620 colon)	TGI (SW-620 colon) [µM]	GI50 (HCT-15 colon)	TGI (HCT-15 colon)	GI50 (U251 CNS)	TGI (U251 CNS)	GI50 (DU-145 prostate)	TGI (DU-145 prostate)	GI50 (SK-MEL-2 melanoma)	TGI (SK-MEL-2 melanoma)	GI50 (K-562 leukemia) [µM]	TGI (K-562 leukemia)	GI50 (LOX IMVI melanoma)	TGI (LOX IMVI melanoma)
COc1c(O)c2c3c(c1OC)-c1ccccc1CC3N(S(=O)(=O)c1ccc(C)cc1)CC2 (stereo not given)	7.88 µM	> 50 µM	1.2	4.03 µM	2.01 µM	> 50 µM	1.6 µM	> 50	2.05 µM	> 50 µM	1.69 µM	> 50 µM	1.62 µM	6.41 µM	1.47 µM	3.88 µM	0.223	7.65 µM	2.59 µM	> 50 µM
COc1ccc(-c2cc(-c3ccccc3)nc(NCCNc3ccnc4cc(Cl)ccc34)n2)cc1	1.7 µM	3.42 µM	1.81	3.78 µM	1.81 µM	3.49 µM	1.32 µM	2.99	0.591 µM	2.09 µM	1.75 µM	3.38 µM	1.77 µM	3.28 µM	1.84 µM	3.43 µM	0.323	1.03 µM	1.55 µM	3.26 µM
Cn1ccnc1C(=O)/C=C/c1ccc(C(=O)Nc2c(F)c(F)c(F)c(F)c2F)cc1	2.1 µM	5.91 µM	2.1	6.44 µM	2.27 µM	6.7 µM	1.19 µM	2.86	1.11 µM	4.3 µM	1.09 µM	2.34 µM	1.64 µM	3.11 µM	2.18 µM	5.6 µM	0.526	2.83 µM	1.5 µM	2.87 µM
Nc1nc(=S)c2[nH]cnc2[nH]1	0.583 µM and 3.13 µM and 1.43 µM	10.9 µM and 24.7 µM and 29.3 µM	4.13	–	0.323 µM and 1.36 µM	> 100 µM and 150 µM and > 250 µM	0.564 µM and 3.6 µM and 1.18 µM	–	0.515 µM and 2.51 µM and 1.7 µM	> 100 µM and 51.6 µM and 38.9 µM	1.49 µM and 3.11 µM	> 100 µM and 241 µM and > 226 µM	0.477 µM and 0.538 µM	> 32.1 µM and 144 µM and 28.7 µM	0.741 µM and 1.7 µM and 3.7 µM	–	0.488	74.1 µM and 8.6 µM	0.136 µM and 0.488 µM	2.23 µM and 8.64 µM and 19.4 µM
COc1ccc(/C=C/C(C)=N/OCC(=O)Nc2ccc(Cl)cc2)cc1	4.22 µM	23.3 µM	5.85	78.5 µM	1.76 µM	8.99 µM	3.13 µM	20.1	2.14 µM	15.6 µM	2.94 µM	13.7 µM	4.11 µM	78.6 µM	3.69 µM	13.5 µM	2.42	17.2 µM	2.63 µM	15.5 µM
COc1cc(OC)cc(-c2ccc(-c3ccc(C(=N)N)cn3)s2)c1	1.87 µM	3.56 µM	1.86	3.98 µM	1.79 µM	3.51 µM	1.91 µM	3.8	1.81 µM	3.49 µM	1.8 µM	3.49 µM	1.79 µM	3.22 µM	19.5 µM	40.3 µM	2.22	6.19 µM	1.7 µM	3.2 µM
C[C@]12CCC3=NCCN3C1=CC[C@@H]1[C@@H]2CC[C@@]2(C)[C@H]1CC[C@]2(C)O	–	53.5 µM	–	74.7 µM	–	> 100 µM	–	> 100	–	> 100 µM	–	> 100 µM	–	> 100 µM	–	> 100 µM	–	> 100 µM	–	> 100 µM
C=C(Cl)[C@@](Cl)(CBr)CC[C@@H](Br)C(C)(C)Cl	–	42.9 µM	0.208	0.741 µM and 2.1 µM	0.577 µM	–	0.778 µM	–	0.866 µM	4.99 µM and 1.97 µM	0.971 µM	–	0.213 µM	1.18 µM and 1.82 µM	0.552 µM	2.72 µM and 1.85 µM	1.7	> 100 µM and 23.5 µM	–	39.4 µM and 34.3 µM
Cc1ccnc(Nc2ccc([N+](=O)[O-])c(NCCN3CCOCC3)n2)c1	0.00617 µM	–	0.0277	22.7 µM	0.0213 µM and 0.0379 µM	48.5 µM	0.00497 µM	> 100	0.0061 µM	31.5 µM	0.00524 µM	> 100 µM	0.00693 µM and 0.0284 µM	–	0.00566 µM and 0.0304 µM	27.2 µM	0.00368	> 100 µM	0.0052 µM	27.9 µM
COc1ccc(/C(C)=C(\c2ccc(Cl)cc2)c2ccc(OCCN3CCCCCC3)cc2)cc1F	2.25 µM	4.72 µM	2.69	6.51 µM	3.29 µM	6.11 µM	2.14 µM	4.81	0.668 µM	2.85 µM	2.79 µM	7.59 µM	4.47 µM	15.6 µM	5.23 µM	16.3 µM	0.828	16.4 µM	2.51 µM	4.82 µM
COC(=O)[C@H](Cc1cn(C)cn1)NC(=O)[C@@H](NC(=O)Nc1cc(C(F)(F)F)cc(C(F)(F)F)c1)C(C)C	> 10 µM	> 10 µM	4.83	> 10 µM	1.71 µM	4.42 µM	2.59 µM	8.25	> 10 µM	> 10 µM	> 10 µM	> 10 µM	> 10 µM	> 10 µM	> 10 µM	> 10 µM	4.74	> 10 µM	1.74 µM	3.4 µM
CCCCCCCCCCCCOC1C(C(CC(=O)N2CCN(Cc3ccc4c(c3)OCO4)CC2)NS(=O)(=O)c2cc(Cl)cc(Cl)c2)OC2OC(C)(C)OC21 (stereo not given)	> 93.1 µM	> 100 µM	9.17	> 68.9 µM	18.1 µM	> 89.8 µM	16.4 µM	> 100	> 100 µM	> 100 µM	12.5 µM	> 100 µM	25.5 µM	> 100 µM	47.9 µM	> 100 µM	14.8	> 100 µM	16 µM	> 65.9 µM
O=C(Oc1ccc2c(c1)CN(Cc1ccccc1)CO2)c1ccccc1	–	33.9 µM	–	61.5 µM	–	36 µM	–	56.4	–	36.2 µM	–	31.2 µM	–	36.7 µM	–	50.5 µM	–	49.6 µM	–	37.1 µM
